Assay results taken from publication PMC3748936 (Chembiochem : a European journal of chemical biology, 2012).

What was measured:
E. coli GMPS [1] = biological target: T1, E. coli GMPS (Escherichia coli, UniProt P04079); settings: previous report; cited from earlier work
T1 sequence (P04079 1-525): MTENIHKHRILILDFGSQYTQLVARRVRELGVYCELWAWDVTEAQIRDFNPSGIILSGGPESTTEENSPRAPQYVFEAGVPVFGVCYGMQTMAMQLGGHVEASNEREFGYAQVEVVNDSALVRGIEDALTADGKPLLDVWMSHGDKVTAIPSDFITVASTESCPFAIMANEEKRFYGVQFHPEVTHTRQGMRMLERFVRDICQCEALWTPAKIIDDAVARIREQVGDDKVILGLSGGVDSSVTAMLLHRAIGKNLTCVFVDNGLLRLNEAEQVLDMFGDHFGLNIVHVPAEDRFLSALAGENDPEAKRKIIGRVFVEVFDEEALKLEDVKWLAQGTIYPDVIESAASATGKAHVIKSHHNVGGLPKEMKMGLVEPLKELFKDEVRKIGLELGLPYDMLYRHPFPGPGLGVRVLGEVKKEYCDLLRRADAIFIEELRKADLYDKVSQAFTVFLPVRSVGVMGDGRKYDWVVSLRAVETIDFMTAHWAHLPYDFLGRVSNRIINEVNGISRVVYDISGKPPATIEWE

E. coli GMPS [2] = biological target: T1, E. coli GMPS; assay: GMPS inhibition of D-XMP amination, UV-Vis analysis; format: biochemical
GMPS = settings: previous report; cited from earlier work
E. coli GMPS [3] = biological target: T1, E. coli GMPS; assay: HPLC-based assay of GMPS enzymatic reaction products; format: biochemical
E. coli GMPS [4] = biological target: T1, E. coli GMPS; assay: Continuous UV spectrophotometric assay of GMPS; format: biochemical; settings: UV-Vis analysis, triplicate, average +/- S.D.
[5] = system: GMPS isolated from rat Walker sarcoma cells; settings: cited from earlier work
[6] = substrate: O=c1[nH]c(=O)c2ncn([C@@H]3O[C@H](COP(=O)(O)O)[C@@H](O)[C@H]3O)c2[nH]1; assay: Continuous UV spectrophotometric assay of GMPS; format: biochemical, E. coli; settings: other: UV-Vis analysis; triplicate, average +/- S.D.

In the case of `O=c1[nH]c(=O)c2ncn([C@@H]3O[C@H](COP(=O)(O)O)[C@@H](O)[C@H]3O)c2[nH]1` [D-XMP, xanthosine 5′-monophosphate], the “kcat (turnover number)” value (E. coli GMPS [1]) is given as 9.4×10^–2 s^–1.

With `OC[C@H]1O[C@@H](n2cnc3c(O)nc(O)nc32)[C@H](O)[C@@H]1O` [D-Xanthosine, D-xanthosine] the “GMPS inhibition (in words)” value (E. coli GMPS [2]) was “neither molecule inhibited GMPS”.

For `C=C1O[C@@](CO)(n2cnc3c(N)ncnc32)[C@H](O)[C@@H]1O` [Decoyinine, decoyinine], the Ki (GMPS) is listed as 26 µM and the Ki (E. coli GMPS [2]) is listed as 54.1 ± 14.5 µM.

In the case of `O=c1[nH]c(=O)c2ncn([C@H]3O[C@@H](COP(=O)(O)O)[C@H](O)[C@@H]3O)c2[nH]1` [L-XMP], the “fold more potent than decoyinine inhibition against E. coli GMPS” value (E. coli GMPS [2]; from Ki values) is reported as about 7 fold, the “Km fold higher than the natural enantiomer D-XMP” value (E. coli GMPS [3]; HPLC analysis) is reported as ~ 10 fold and the “kcat fold difference in turnover number compared to D-XMP” value (E. coli GMPS [3]; HPLC analysis) is reported as 15,000 fold. For the same molecule, the “kcat/Km (specific activity) fold decrease from the natural enantiomer” value (E. coli GMPS [3]; HPLC analysis) was 140,000 fold, the “conversion of substrate by GMPS (HPLC peak, MS confirmed)” value (E. coli GMPS [3]; incubation with GMPS and NH4OAc) was “converted to L-GMP by GMPS” and the kcat (E. coli GMPS [4]; substrate turnover to GMP) was 3.1 (± 0.7) × 10^−6 s^−1. The Km (E. coli GMPS [4]) was 330 ± 105 µM.

With `O=c1[nH]c(=O)c2ncn(C3OC(CO)C(O)C3O)c2[nH]1` [L-Xanthosine, L-xanthosine] the “GMPS inhibition (in words)” value (E. coli GMPS [2]) was “neither molecule inhibited GMPS”.

In the case of `NC(=O)c1ncn([C@@H]2O[C@H](CO)[C@@H](O)[C@H]2O)c1O` [Mizoribine], the Ki [5] is given as 10 µM and the Ki (E. coli GMPS [2]) is given as 1.8 ± 0.7 µM.

B1: E. coli GMPS (Escherichia coli K-12) (protein)
chain: T1 sequence (P04079 1-525)
For B1, the Km [6] was 24.9 ± 6.6 µM, the kcat [6] was 0.043 ± 0.007 s⁻¹ and the kcat/Km [6] was 1700 M⁻¹ s⁻¹.
